Experimental data: patent US10662156B2, “Guanidine derivative and medical use thereof” (Toray Industries, Inc., priority 2016, dated 2020)
Structures can show the parent of a compound that is named as a salt.

What follows are molecules tested against recombinant GST fusion MALT1 (human MALT1) (Homo sapiens (Human), UniProt Q9UDY8) (assay: Evaluation of inhibition of protease activity of MALT1 (cleavage of fluorescent peptide substrate Ac-LRSR-AMC)). Conditions: substrate Ac-LRSR-AMC 20 μmol/L, 30° C. for 80 minutes.
Chain of recombinant GST fusion MALT1 (human MALT1) (Q9UDY8 whole entry, the tested form may be a part): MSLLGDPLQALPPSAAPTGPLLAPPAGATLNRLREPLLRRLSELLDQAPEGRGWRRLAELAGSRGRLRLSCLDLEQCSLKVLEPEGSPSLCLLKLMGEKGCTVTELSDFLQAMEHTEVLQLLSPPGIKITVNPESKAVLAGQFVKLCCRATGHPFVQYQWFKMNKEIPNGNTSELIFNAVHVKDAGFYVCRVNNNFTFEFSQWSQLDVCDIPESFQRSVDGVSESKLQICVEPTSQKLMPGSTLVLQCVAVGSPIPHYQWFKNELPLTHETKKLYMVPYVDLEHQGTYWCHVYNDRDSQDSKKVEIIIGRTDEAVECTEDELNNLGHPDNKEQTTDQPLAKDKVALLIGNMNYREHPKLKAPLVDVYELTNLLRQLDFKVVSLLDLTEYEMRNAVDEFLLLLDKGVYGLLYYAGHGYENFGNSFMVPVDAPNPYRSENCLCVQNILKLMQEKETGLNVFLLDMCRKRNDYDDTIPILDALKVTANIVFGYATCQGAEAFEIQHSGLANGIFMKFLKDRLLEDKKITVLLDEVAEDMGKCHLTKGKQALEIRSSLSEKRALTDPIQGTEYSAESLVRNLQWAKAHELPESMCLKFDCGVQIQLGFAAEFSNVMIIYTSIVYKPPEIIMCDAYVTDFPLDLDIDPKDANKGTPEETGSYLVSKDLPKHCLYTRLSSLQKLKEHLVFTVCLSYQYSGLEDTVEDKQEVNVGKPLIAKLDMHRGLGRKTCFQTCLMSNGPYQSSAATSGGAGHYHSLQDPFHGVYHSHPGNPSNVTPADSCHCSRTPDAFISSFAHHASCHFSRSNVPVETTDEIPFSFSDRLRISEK
Assay type: biochemical
Method in brief: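 GST-tagged full-length human MALT1 from E. coli ([…]) was preincubated with compound 30 min at room temperature. Buffer: MES, 150 mM NaCl, 10% sucrose, 0.1% CHAPS, 10 mM DTT, 1 mol/L ammonium citrate. Ac-LRSR-AMC (20 μM final) was then cleaved 80 min at 30 °C; AMC fluorescence (Ex 380/Em 460) gain gave % inhibition versus no-enzyme and DMSO controls.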

Row | Structure (SMILES) | IC50 [nM]
1 | CCOC(=O)/N=C(\N)NCc1cnc(-c2ccc(Cl)cc2)c(-c2ccc(Cl)cc2)c1 [Compound of Example 81, 1-((5,6-bis(4-chlorophenyl)pyridin-3-yl)methyl)-2-(ethoxycarbonyl)guanidine Hydrochloride] | 534
2 | COc1ccc(-c2cc(CN/C(N)=N/S(=O)(=O)c3ccccc3)cnc2-c2ccc(C)cc2)cc1 [Compound of Example 24, N-(amino(((5-(4-methoxyphenyl)-6-(4-methylphenyl)pyridin-3-yl)methyl)amino)methylene)benzenesulfoamide] | 140
3 | Cc1ccc(-c2ncc(CN/C(N)=N/S(=O)(=O)c3cccs3)cc2-c2ccc(C(F)(F)F)cc2)cc1 [Compound of Example 33, N-(amino(((6-(4-methylphenyl)-5-(4-(trifluoromethyl)phenyl)pyridin-3-yl)methyl)amino)methylene)thiophene-2-sulfonamide Hydrochloride] | 2070
4 | Cc1ccc(-c2ncc(CN/C(N)=N/S(=O)(=O)c3ccccc3)cc2-c2ccc(Cl)cc2)cc1 [Compound of Example 5, N-(amino(((5-(4-chlorophenyl)-6-(4-methylphenyl)pyridin-3-yl)methyl)amino)methylene)benzenesulfonamide] | 66
5 | N/C(=N\S(=O)(=O)c1ccccc1)NCc1cc(-c2ccc(Cl)cc2)c(-c2ccc(Cl)cc2)nc1O [Compound of Example 91, N-(amino(((5,6-bis(4-chlorophenyl)-2-hydroxypyridin-3-yl)methyl)amino)methylene)benzenesulfonamide] | 112
6 | Cc1ccc(-c2cc(CN/C(N)=N/S(=O)(=O)c3ccccc3)cnc2-c2ccc(Cl)cc2)cc1 [Compound of Example 17, N-(amino(((6-(4-chlorophenyl)-5-(4-methylphenyl)pyridin-3-yl)methyl)amino)methylene)benzenesulfonamide] | 606
7 | NN/C(=N\S(=O)(=O)c1ccccc1)NCc1cnc(-c2ccc(Cl)cc2)c(-c2ccc(Cl)cc2)c1 [Compound of Example 38, N-((5,6-bis(4-chlorophenyl)pyridin-3-yl)methyl)-N′-(phenylsulfonyl)hydrazinecarboximidate] | 90
8 | N/C(=N\S(=O)(=O)C1CC1)NCc1cnc(-c2ccc(Cl)cc2)c(-c2ccc(Cl)cc2)c1 [Compound of Example 58, N-(amino(((5,6-bis(4-chlorophenyl)pyridin-3-yl)methyl)amino)methylene)cyclopropanesulfonamide] | 743
9 | N/C(=N\S(=O)(=O)c1cccc(O)c1)NCc1cnc(-c2ccc(Cl)cc2)c(-c2ccc(Cl)cc2)c1 [Compound of Example 96, N-(amino(((5,6-bis(4-chlorophenyl)pyridin-3-yl)methyl)amino)methylene)-3-hydroxybenzenesulfonamide Hydrochloride] | 2140
10 | N/C(=N\S(=O)(=O)C1CCCCC1)NCc1cnc(-c2ccc(Cl)cc2)c(-c2ccc(Cl)cc2)c1 [Compound of Example 56, N-(amino(((5,6-bis(4-chlorophenyl)pyridin-3-yl)methyl)amino)methylene)cyclohexanesulfonamide] | 429
11 | N/C(=N\S(=O)(=O)c1ccccc1)NCc1cnc(-c2ccc(Cl)cc2)c(-c2ccc(OC(F)(F)F)cc2)c1 [Compound of Example 22, N-(amino(((6-(4-chlorophenyl)-5-(4-(trifluoromethoxy)phenyl)pyridin-3-yl)methyl)amino)methylene)benzenesulfonamide] | 745
12 | N/C(=N\S(=O)(=O)c1ccccc1F)NCc1cnc(-c2ccc(Cl)cc2)c(-c2ccc(Cl)cc2)c1 [Compound of Example 26, N-(amino(((5,6-bis(4-chlorophenyl)pyridin-3-yl)methyl)amino)methylene)-2-fluorobenzenesulfonamide] | 315
13 | N/C(=N\S(=O)(=O)c1ccccc1)NCc1cnc(-c2ccccc2)c(-c2ccc(Cl)cc2)c1 [Compound of Example 3, N-(amino(((5-(4-chlorophenyl)-6-phenylpyridin-3-yl)methyl)amino)methylene)benzenesulfonamide] | 705
14 | CC(C)Oc1ccc(-c2cc(CN/C(N)=N/S(=O)(=O)c3ccccc3)cnc2-c2ccc(Cl)cc2)cc1 [Compound of Example 23, N-(amino(((6-(4-chlorophenyl)-5-(4-isopropoxyphenyl)pyridin-3-yl)methyl)amino)methylene)benzenesulfonamide] | 1720
15 | NC(=NS(=O)(=O)c1cccs1)NCc1cc(-c2ccc(Cl)cc2)c(-c2ccc(Cl)cc2)cn1 [Compound of Example 43, N-(amino(((4,5-bis(4-chlorophenyl)pyridin-2-yl)methyl)amino)methylene)thiophene-2-sulfonamide] | 23
16 | Cc1nc(-c2ccc(Cl)cc2)c(-c2ccc(Cl)cc2)cc1CN/C(N)=N/S(=O)(=O)c1ccccc1 [Compound of Example 90, N-(amino(((5,6-bis(4-chlorophenyl)-2-methylpyridin-3-yl)methyl)amino)methylene)benzenesulfonamide] | 234
17 | CC(N/C(N)=N/S(=O)(=O)c1ccccc1)c1cnc(-c2ccc(Cl)cc2)c(-c2ccc(Cl)cc2)c1 (centres unmarked) [Compound of Example 46, N-(amino((1-(5,6-bis(4-chlorophenyl)pyridin-3-yl)ethyl)amino)methylene)benzenesulfonamide] | 539
18 | N/C(=N\S(=O)(=O)c1ccccc1)NCc1cnc(-c2ccc(Cl)cc2)c(-c2cccc(Cl)c2)c1 [Compound of Example 15, N-(amino(((5-(3-chlorophenyl)-6-(4-chlorophenyl)pyridin-3-yl)methyl)amino)methylene)benzenesulfonamide] | 308
19 | N/C(=N\S(=O)(=O)c1ccccc1)NCc1cnc(-c2ccc(Cl)cc2)c(-c2ccc(F)cc2)c1 [Compound of Example 20, N-(amino(((6-(4-chlorophenyl)-5-(4-fluorophenyl)pyridin-3-yl)methyl)amino)methylene)benzenesulfonamide] | 1110
20 | N/C(=N\C(=O)c1cccs1)NCc1cnc(-c2ccc(Cl)cc2)c(-c2ccc(Cl)cc2)c1 [Compound of Example 35, N-(amino(((5,6-bis(4-chlorophenyl)pyridin-3-yl)methyl)amino)methylene)thiophene-2-carboxamide Hydrochloride] | 314
21 | CCCCCC(=O)/N=C(\N)NCc1cnc(-c2ccc(Cl)cc2)c(-c2ccc(Cl)cc2)c1 [Compound of Example 65, N-(amino(((5,6-bis(4-chlorophenyl)pyridin-3-yl)methyl)amino)methylene)hexanamide] | 462
22 | N/C(=N\S(=O)(=O)c1ccccc1)NCc1cnc(-c2ccc(OC(F)(F)F)cc2)c(-c2ccc(Cl)cc2)c1 [Compound of Example 10, N-(amino(((5-(4-chlorophenyl)-6-(4-(trifluoromethoxy)phenyl)pyridin-3-yl)methyl)amino)methylene)benzenesulfonamide] | 297
23 | N/C(=N\S(=O)(=O)C1CCCC1)NCc1cnc(-c2ccc(Cl)cc2)c(-c2ccc(Cl)cc2)c1 [Compound of Example 57, N-(amino(((5,6-bis(4-chlorophenyl)pyridin-3-yl)methyl)amino)methylene)cyclopentanesulfonamide] | 517
